Laboratory results taken from patent US8017612B2, “Piperazine compound and use thereof as a HCV polymerase inhibitor” (priority 2006, dated 2011).

Assays:
[1] = target: T1, HCV polymerase (NS5B) type 1a (Hepatitis C virus genotype 1a, UniProt P26664); assay: Assay of enzyme (HCV polymerase) inhibitory activity, type 1a enzyme; assay type: biochemical, HCV type 1a (cloned from the blood of patients)
T1 construct: made in house; host or cells: Escherichia coli (by the 'similar method' of the 1b enzyme)
Procedure, shortened: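 Patient-derived type 1a NS5B (C-terminal 47-aa deletion, His-tagged, E. coli-expressed) at 1.5 μg/ml was reacted with 5 μg/ml 3′UTR-containing substrate RNA, 50 μM ATP/GTP/CTP, 2 μM UTP plus [3H]UTP, pH 7.5, 25° C for 60 min. TCA-precipitated RNA radioactivity was counted; IC50 from ± compound.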

[2] = target: T2, HCV polymerase (NS5B) type 1b (Hepatitis C virus genotype 1b, UniProt P26663); assay: Assay of enzyme (HCV polymerase) inhibitory activity, type 1b enzyme; assay type: biochemical, HCV BK strain (type 1b)
T2 construct: a region encoding NS5B (J Virol 1991 March, 65(3), 1105-13, 544 amino acids after deletion of 47 amino acids on the C-terminal); 6xHis (C); made in house; host or cells: Escherichia coli
Procedure, shortened: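 NS5B from HCV BK strain (type 1b), C-terminal 47 aa deleted, C-terminal His6-tagged, E. coli-expressed, 0.5 μg/ml, with ~450 nt substrate RNA carrying the 3′ UTR (polyU, 3′X) at 5 μg/ml. Incubation 60 min at 25 °C with 50 μM ATP/GTP/CTP, 2 μM UTP plus [3H]UTP, pH 7.5 Tris.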

[3] = HCV polymerase inhibitory activity (IC50), 1a, type 1a enzyme 1.5 μg/ml, 25° C., 60 min
[4] = HCV polymerase inhibitory activity (IC50), 1b, type 1b enzyme 0.5 μg/ml, 25° C., 60 min
[5] = HCV polymerase inhibitory activity IC50, 1a, type 1a enzyme
[6] = HCV polymerase inhibitory activity IC50, 1b, type 1b enzyme

Row | Structure (SMILES) | IC50 [1, 3] [nM] | IC50 [2, 4] [nM] | IC50 [1, 5] [nM] | IC50 [2, 6] [nM]
1 | Cc1nc(N2CCN(S(=O)(=O)c3ccc(OC(F)(F)F)cc3)[C@@H](C(=O)NCc3ccc(C(C)C)cc3)C2)sc1C(=O)NCCC(=O)O [Example 361, 3-({2-[(R)-3-(4-isopropyl-benzylcarbamoyl)-4-(4-trifluoromethoxy-benzenesulfonyl)-piperazin-1-yl]-4-methyl-thiazole-5-carbonyl}-amino)-propionic acid] | < 100 | < 100 |  | 
2 | CC(=O)N1CCN(S(=O)(=O)c2ccc(C(C)(C)C)cc2)C(C(=O)NCc2ccc(C(F)(F)F)cc2)C1 (stereo not shown) [Example 30, 4-acetyl-1-(4-tert-butyl-benzenesulfonyl)-piperazine-2-carboxylic acid 4-trifluoromethyl-benzylamide] | > 1000 | > 1000 |  | 
3 | CCC(C)(C)c1ccc(CNC(=O)[C@H]2CN(c3cnc4cncc(C(=O)O)c4n3)CCN2S(=O)(=O)c2ccc(Cl)s2)cc1 [Example 858, 2-{(R)-4-(5-chloro-thiophene-2-sulfonyl)-3-[4-(1,1-dimethyl-propyl)-benzylcarbamoyl]-piperazin-1-yl}-pyrido[3,4-b]pyrazine-8-carboxylic acid] |  |  | < 100 | < 100
4 | CC(C)c1ccc(CNC(=O)[C@H]2CN(C(=O)Cn3cccn3)CCN2S(=O)(=O)c2ccc(C(F)(F)F)cc2)cc1 [Example 228, (R)-4-(2-pyrazol-1-yl-acetyl)-1-(4-trifluoromethyl-benzenesulfonyl)-piperazine-2-carboxylic acid 4-isopropyl-benzylamide] | 100 to 1000 | 100 to 1000 |  | 
5 | Cc1cc(C(C)C)ccc1CNC(=O)[C@H]1CN(c2nc(C)c(C(=O)O)s2)CCN1S(=O)(=O)c1ccc(OC(F)(F)F)cc1 [Example 364, 2-[(R)-3-(4-isopropyl-2-methyl-benzylcarbamoyl)-4-(4-trifluoromethoxy-benzenesulfonyl)-piperazin-1-yl]-4-methyl-thiazole-5-carboxylic acid] | < 100 | < 100 |  | 
6 | O=C(NCc1ccc(OC(F)(F)F)cc1)[C@H]1CN(c2nc3nc(C4CC4)ncc3s2)CCN1S(=O)(=O)c1ccc(OC(F)(F)F)cc1F [Example 1110, (R)-4-(5-cyclopropyl-thiazolo[4,5-d]pyrimidin-2-yl)-1-(2-fluoro-4-trifluoromethoxy-benzenesulfonyl)-piperazine-2-carboxylic acid 4-trifluoromethoxy-benzylamide] |  |  | < 100 | < 100
7 | O=C(NCc1ccc(OC(F)(F)F)cc1)[C@H]1CN(c2nc3cccnc3s2)CCN1S(=O)(=O)c1ccc(OC(F)(F)F)cc1 [Example 776, (R)-4-thiazolo[5,4-b]pyridin-2-yl-1-(4-trifluoromethoxy-benzenesulfonyl)-piperazine-2-carboxylic acid 4-trifluoromethoxy-benzylamide] |  |  | < 100 | < 100
8 | O=C(NCc1ccc(OC(F)F)c(F)c1)[C@H]1CN(c2nc3nc(C4CC4)ncc3s2)CCN1S(=O)(=O)c1ccc(C(F)(F)F)cc1 [Example 1074, (R)-4-(5-cyclopropyl-thiazolo[4,5-d]pyrimidin-2-yl)-1-(4-trifluoromethyl-benzenesulfonyl)-piperazine-2-carboxylic acid 4-difluoromethoxy-3-fluoro-benzylamide] |  |  | < 100 | < 100
9 | CCC(F)(F)c1ccc(CNC(=O)[C@H]2CN(c3cnc4cncnc4n3)CCN2S(=O)(=O)c2ccc(-c3ccccc3)cc2)cc1 [Example 696, (R)-1-(biphenyl-4-sulfonyl)-4-pteridin-7-yl-piperazine-2-carboxylic acid 4-(1,1-difluoro-propyl)-benzylamide] |  |  | < 100 | < 100
10 | CCC(F)(F)c1ccc(CNC(=O)[C@H]2CN(C(=O)Nc3ccnc(C(F)(F)F)c3)CCN2S(=O)(=O)c2ccc(OC(F)(F)F)cc2)cc1 [Example 555, (R)-4-(4-trifluoromethoxy-benzenesulfonyl)-piperazine-1,3-dicarboxylic acid 3-[4-(1,1-difluoro-propyl)-benzylamide] 1-[(2-trifluoromethyl-pyridin-4-yl)-amide]] | 100 to 1000 | 100 to 1000 |  | 
11 | N#Cc1ncc2sc(N3CCN(S(=O)(=O)c4ccc(C(F)(F)F)cc4)[C@@H](C(=O)NCc4ccc(OC(F)(F)F)cc4)C3)nc2n1 [Example 1010, (R)-4-(5-cyano-thiazolo[4,5-d]pyrimidin-2-yl)-1-(4-trifluoromethyl-benzenesulfonyl)-piperazine-2-carboxylic acid 4-trifluoromethoxy-benzylamide] |  |  | < 100 | < 100
12 | CCC(F)(F)c1ccc(CNC(=O)[C@H]2CN(C(=O)CNc3cccnc3)CCN2S(=O)(=O)c2ccc(OC(F)(F)F)cc2)cc1 [Example 733, (R)-4-[2-(pyridin-3-ylamino)-acetyl]-1-(4-trifluoromethoxy-benzenesulfonyl)-piperazine-2-carboxylic acid 4-(1,1-difluoro-propyl)-benzylamide] |  |  | 100 to 1000 | 100 to 1000
13 | CC(=O)N1CCN(S(=O)(=O)c2cc(Cl)cc(Cl)c2)C(C(=O)NCc2ccc(C(F)(F)F)cc2)C1 (stereo not shown) [Example 351, 4-acetyl-1-(3,5-dichloro-benzenesulfonyl)-piperazine-2-carboxylic acid 4-trifluoromethyl-benzylamide] | > 1000 | > 1000 |  | 
14 | CC(=O)N1CCN(S(=O)(=O)c2ccc(Cl)cc2Cl)C(C(=O)NCc2ccc(C(F)(F)F)cc2)C1 (stereo not shown) [Example 161, 4-acetyl-1-(2,4-dichloro-benzenesulfonyl)-piperazine-2-carboxylic acid 4-trifluoromethyl-benzylamide] | > 1000 | > 1000 |  | 
15 | CCC(F)(F)c1ccc(CNC(=O)[C@H]2CN(c3nc4ncncc4s3)CCN2S(=O)(=O)c2ccc(C(F)(F)F)cc2)cc1 [Example 903, (R)-4-thiazolo[4,5-d]pyrimidin-2-yl-1-(4-trifluoromethyl-benzenesulfonyl)-piperazine-2-carboxylic acid 4-(1,1-difluoro-propyl)-benzylamide] |  |  | < 100 | < 100
16 | Cc1nc(N2CCN(S(=O)(=O)c3ccc(C(F)(F)F)cc3)[C@@H](C(=O)NCc3ccc(C(C)C)cc3)C2)sc1C(=O)NS(C)(=O)=O [Example 446, (R)-4-(5-methanesulfonylaminocarbonyl-4-methyl-thiazol-2-yl)-1-(4-trifluoromethyl-benzenesulfonyl)-piperazine-2-carboxylic acid 4-isopropyl-benzylamide] | 100 to 1000 | < 100 |  | 
17 | COC(=O)CCc1ccc(S(=O)(=O)N2CCN(C(C)=O)CC2C(=O)NCc2ccc(C(F)(F)F)cc2)cc1 (stereo not shown) [Example 166, 3-{4-[4-acetyl-2-(4-trifluoromethyl-benzylcarbamoyl)-piperazine-1-sulfonyl]-phenyl}-propionic acid methyl ester] | > 1000 | > 1000 |  | 
18 | Cn1ncc2sc(N3CCN(S(=O)(=O)c4ccc(C(F)(F)F)cc4)[C@@H](C(=O)NCc4ccc(OC(F)(F)F)cc4)C3)nc2c1=O [Example 1030, (R)-4-(5-methyl-4-oxo-4,5-dihydro-thiazolo[4,5-d]pyridazin-2-yl)-1-(4-trifluoromethyl-benzenesulfonyl)-piperazine-2-carboxylic acid 4-trifluoromethoxy-benzylamide] |  |  | < 100 | < 100
19 | O=C(NCc1cc2ccccn2c1)[C@H]1CN(c2nc3ncncc3s2)CCN1S(=O)(=O)c1ccc(OC(F)(F)F)cc1 [Example 989, (R)-4-thiazolo[4,5-d]pyrimidin-2-yl-1-(4-trifluoromethoxy-benzenesulfonyl)-piperazine-2-carboxylic acid (indolizin-2-ylmethyl)-amide] |  |  | < 100 | < 100
20 | CC(=O)NCC(=O)N1CCN(S(=O)(=O)c2ccc(C(F)(F)F)cc2)[C@@H](C(=O)NCc2ccc(C(C)C)cc2)C1 [Example 185, (R)-4-(2-acetylamino-acetyl)-1-(4-trifluoromethyl-benzenesulfonyl)-piperazine-2-carboxylic acid 4-isopropyl-benzylamide] | > 1000 | 100 to 1000 |  | 
21 | CC(=O)N1CCN(S(=O)(=O)c2cccc(Br)c2)C(C(=O)NCc2ccc(C(F)(F)F)cc2)C1 (stereo not shown) [Example 165, 4-acetyl-1-(3-bromo-benzenesulfonyl)-piperazine-2-carboxylic acid 4-trifluoromethyl-benzylamide] | > 1000 | > 1000 |  | 
22 | COc1nnnc2nc(N3CCN(S(=O)(=O)c4ccc(OC(F)(F)F)cc4)[C@@H](C(=O)NCc4ccc(OC(F)(F)F)cc4)C3)sc12 [Example 1035, (R)-4-(4-methoxy-thiazolo[4,5-d][1,2,3]triazin-6-yl)-1-(4-trifluoromethoxy-benzenesulfonyl)-piperazine-2-carboxylic acid 4-trifluoromethoxy-benzylamide] |  |  | < 100 | < 100
23 | O=C(NCc1ccc(OC(F)(F)F)cc1)[C@H]1CN(c2nc3nc(F)ncc3s2)CCN1S(=O)(=O)c1ccc(OC(F)(F)F)cc1 [Example 972, (R)-4-(5-fluoro-thiazolo[4,5-d]pyrimidin-2-yl)-1-(4-trifluoromethoxy-benzenesulfonyl)-piperazine-2-carboxylic acid 4-trifluoromethoxy-benzylamide] |  |  | < 100 | < 100
